According to patent publication US8962627B2, “Oxime derivatives and their use as allosteric modulators of metabotropic glutamate receptors” (Prestwick Chemical, Inc., priority 2009, dated 2015):

What was measured:
[1] = biological target: T1, human mGluR4 transiently over-expressed in HEK-293 cells (Homo sapiens, UniProt Q14833); test: Human mGluR4 positive allosteric modulator evaluation using Ca++ functional assay; type: cell-based; details: for PAM activity on mGluR4: up to 100 μM; for EC50: HEK-293 cells co-transfected with hmGluR4 and chimeric G protein, EC10 glutamate, intracellular calcium (Fluo4AM), read-out: mean EC50 of agonist/positive allosteric modulator activity on mGluR4
T1 construct: expressed in transfected cells; host or cells: HEK-293 cells, transient co-transfection by electroporation
T1 sequence (Q14833 33-912): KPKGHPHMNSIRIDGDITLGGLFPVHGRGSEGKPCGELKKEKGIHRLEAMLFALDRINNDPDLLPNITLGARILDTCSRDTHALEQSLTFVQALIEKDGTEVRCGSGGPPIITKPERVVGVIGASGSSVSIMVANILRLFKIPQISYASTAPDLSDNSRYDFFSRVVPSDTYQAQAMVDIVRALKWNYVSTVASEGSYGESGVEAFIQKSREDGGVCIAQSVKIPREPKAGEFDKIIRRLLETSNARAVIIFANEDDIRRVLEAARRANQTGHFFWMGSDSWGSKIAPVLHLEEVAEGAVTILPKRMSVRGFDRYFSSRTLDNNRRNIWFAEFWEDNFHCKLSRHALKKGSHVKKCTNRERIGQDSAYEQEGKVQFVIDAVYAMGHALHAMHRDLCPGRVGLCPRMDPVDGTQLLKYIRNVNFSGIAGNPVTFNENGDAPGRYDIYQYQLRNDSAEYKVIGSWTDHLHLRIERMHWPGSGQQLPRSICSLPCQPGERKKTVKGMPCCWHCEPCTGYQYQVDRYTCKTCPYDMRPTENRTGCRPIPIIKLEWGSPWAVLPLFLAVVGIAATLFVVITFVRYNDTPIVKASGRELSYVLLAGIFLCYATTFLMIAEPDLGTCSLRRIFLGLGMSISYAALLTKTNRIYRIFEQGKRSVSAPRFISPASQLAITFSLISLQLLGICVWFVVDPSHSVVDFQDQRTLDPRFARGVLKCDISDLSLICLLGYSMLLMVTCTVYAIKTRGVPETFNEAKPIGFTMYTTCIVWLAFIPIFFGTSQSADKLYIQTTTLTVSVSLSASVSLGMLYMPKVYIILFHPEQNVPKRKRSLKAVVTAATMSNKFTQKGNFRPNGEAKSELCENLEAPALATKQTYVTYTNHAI
Procedure, shortened: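 Fluo4AM-loaded HEK-293 cells expressing hmGluR4 plus a chimeric G protein were read for intracellular Ca2+ (ex 485, em 525 nm). PAM effect measured as potentiation of EC10 glutamate after a 60 s compound-alone agonist read; EC50 from variable-slope sigmoidal fits of 6–9 doses, duplicates, twice.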

Structure (SMILES)	melting point	PAM activity on mGluR4 [1]	EC50 [1]
ON=c1cc(-c2ccc3ccccc3n2)oc2ccccc12 [Example 79, 2-Quinolin-2-yl-chromen-4-one oxime]	232 to 235 °C	no PAM activity	–
ON=c1cc(-c2ccncn2)oc2ccccc12 [Example 80, 2-Pyrimidin-4-yl-chromen-4-one oxime]	208 to 211 °C	no PAM activity	–
Cl.ON=c1cc(-c2cc3cccn3cn2)oc2ccc(OCCN3CCCC3)cc12 [Example 87, 6-(2-Pyrrolidin-1-yl-ethoxy)-2-pyrrolo[1,2-c]pyrimidin-3-yl-chromen-4-one oxime, hydrochloride]	> 260 °C (dec.)	–	< 5000 nM
Cl.ON=c1cc(-c2cc3cccn3cn2)oc2ccc(OCCN3CCCCC3)cc12 [Example 88, 6-(2-Piperidin-1-yl-ethoxy)-2-pyrrolo[1,2-c]pyrimidin-3-yl-chromen-4-one oxime, hydrochloride]	> 255 °C (dec.)	–	< 5000 nM
ON=c1cc(-c2cn3cccc3cn2)oc2ccccc12 [Example 91, 2-Pyrrolo[1,2-a]pyrazin-3-yl-chromen-4-one oxime]	> 276 °C	–	< 1000 nM
CN1CCN(CCOc2ccc3oc(-c4cc5cccn5cn4)cc(=NO)c3c2)CC1.Cl.Cl [Example 93, 6-[2-(4-methyl-piperazin-1-yl)-ethoxy]-2-pyrrolo[1,2-c]pyrimidin-3-yl-chromen-4-one oxime, dihydrochloride]	> 230 °C (dec.)	–	< 5000 nM
CN1CCCN(CCOc2ccc3oc(-c4cc5cccn5cn4)cc(=NO)c3c2)CC1.Cl.Cl [Example 94, 6-[2-(4-methyl-[1,4]diazepan-1-yl)-ethoxy]-2-pyrrolo[1,2-c]pyrimidin-3-yl-chromen-4-one oxime, dihydrochloride]	> 210 °C (dec.)	–	< 1000 nM
Cl.OC[C@@H]1CCCN1CCOc1ccc2oc(-c3cc4cccn4cn3)cc(=NO)c2c1 [Example 95, 6-[2-((S)-2-hydroxymethylpyrrolidin-1-yl)-ethoxy]-2-pyrrolo[1,2-c]pyrimidin-3-yl-chromen-4-one oxime, hydrochloride]	> 220 °C (dec.)	–	< 5000 nM
COC[C@@H]1CCCN1CCOc1ccc2oc(-c3cc4cccn4cn3)cc(=NO)c2c1.Cl [Example 96, 6-[2-((S)-2-methoxymethylpyrrolidin-1-yl)-ethoxy]-2-pyrrolo[1,2-c]pyrimidin-3-yl-chromen-4-one oxime, hydrochloride]	> 225 °C (dec.)	–	< 1000 nM
COC[C@H]1CCCN1CCOc1ccc2oc(-c3cc4cccn4cn3)cc(=NO)c2c1.Cl [Example 97, 6-[2-((R)-2-methoxymethylpyrrolidin-1-yl)-ethoxy]-2-pyrrolo[1,2-c]pyrimidin-3-yl-chromen-4-one oxime, hydrochloride]	210 °C (dec.)	–	< 1000 nM
Cl.ON=c1cc(-c2cc3cccn3cn2)oc2ccc(OCCN3CCC(O)C3)cc12 (centres unmarked) [Example 98, 6-[2-(3-hydroxy-pyrrolidin-1-yl)-ethoxy]-2-pyrrolo[1,2-c]pyrimidin-3-yl-chromen-4-one oxime, hydrochloride]	> 230 °C (dec.)	–	< 1000 nM
CN(C)C1CCN(CCOc2ccc3oc(-c4cc5cccn5cn4)cc(=NO)c3c2)CC1.Cl.Cl [Example 99, 6-[2-(4-dimethylamino-piperidin-1-yl)-ethoxy]-2-pyrrolo[1,2-c]pyrimidin-3-yl-chromen-4-one oxime, dihydrochloride]	> 255 °C (dec.)	–	< 1000 nM
Cl.ON=c1cc(-c2cc3cccn3cn2)oc2ccc(OCCCN3CCOCC3)cc12 [Example 101, 6-(3-morpholin-4-yl-propoxy)-2-pyrrolo[1,2-c]pyrimidin-3-yl-chromen-4-one oxime, hydrochloride]	> 220 °C (dec.)	–	< 1000 nM
Cl.ON=c1cc(-c2cc3cccn3cn2)oc2ccc(CCCCN3CCOCC3)cc12 [Example 102, 6-(4-morpholin-4-yl-butyl)-2-pyrrolo[1,2-c]pyrimidin-3-yl-chromen-4-one oxime, hydrochloride]	180 to 185 °C	–	< 1000 nM
COCCN(CCOC)CCOc1ccc2oc(-c3cc4cccn4cn3)cc(=NO)c2c1.Cl [Example 104, 6-(2-[bis-(2-methoxy-ethyl)-amino]-ethoxy)-2-pyrrolo[1,2-c]pyrimidin-3-yl-chromen-4-one oxime, hydrochloride]	155 to 160 °C	–	< 1000 nM
COC1CCCN(CCOc2ccc3oc(-c4cc5cccn5cn4)cc(=NO)c3c2)C1.Cl (centres unmarked) [Example 108, 6-[2-(3-methoxy-piperidin-1-yl)-ethoxy]-2-pyrrolo[1,2-c]pyrimidin-3-yl-chromen-4-one oxime, hydrochloride]	178 to 184 °C	–	< 1000 nM

Structure (SMILES)	melting point	PAM activity on mGluR4 [1]	EC50 [1]
Cl.ON=c1cc(-c2cc3cccn3cn2)oc2ccc(OCCN3CCCC(F)(F)C3)cc12 [Example 114, 6-[2-(3,3-difluoro-piperidin-1-yl)-ethoxy]-2-pyrrolo[1,2-c]pyrimidin-3-yl-chromen-4-one oxime, hydrochloride]	190 to 195 °C	–	< 1000 nM
Cl.O=C(NCCN1CCOCC1)c1ccc2oc(-c3cc4cccn4cn3)cc(=NO)c2c1 [Example 115, 4-(hydroxyimino)-2-pyrrolo[1,2-c]pyrimidin-3-yl-4H-chromene-6-carboxylic acid (2-morpholin-4-yl-ethyl)-amide, hydrochloride]	230 to 235 °C	–	< 1000 nM
Cl.Cl.ON=c1cc(-c2cc3cccn3cn2)oc2ccc(OCCN3CCC(N4CCCCC4)CC3)cc12 [Example 116, 6-(2-[1,4′]bipiperidinyl-1′-yl-ethoxy)-2-pyrrolo[1,2-c]pyrimidin-3-yl-chromen-4-one oxime, dihydrochloride]	> 235 °C (dec.)	–	< 1000 nM
Cl.ON=c1cc(-c2cc3cccn3cn2)oc2ccc(OCCN3CCCOCC3)cc12 [Example 117, 6-(2-[1,4]oxazepan-4-yl-ethoxy)-2-pyrrolo[1,2-c]pyrimidin-3-yl-chromen-4-one oxime, hydrochloride]	240 °C (dec.)	–	< 1000 nM
Cl.Cl.ON=c1cc(-c2cc3cccn3cn2)oc2ccc(OCCN3CCC(N4CCCC4)CC3)cc12 [Example 118, 6-[2-(4-pyrrolidin-1-yl-piperidin-1-yl)-ethoxy]-2-pyrrolo[1,2-c]pyrimidin-3-yl-chromen-4-one oxime, dihydrochloride]	> 210 °C (dec.)	–	< 1000 nM
Cl.ON=c1cc(-c2cc3cccn3cn2)oc2ccc(OCCN3CCC(F)(F)C3)cc12 [Example 119, 6-[2-(3,3-difluoro-pyrrolidin-1-yl)-ethoxy]-2-pyrrolo[1,2-c]pyrimidin-3-yl-chromen-4-one oxime, hydrochloride]	> 230 °C (dec.)	–	< 1000 nM
Cl.ON=c1cc(-c2cn3cccc3cn2)oc2ccc(OCCN3CCOCC3)cc12 [Example 123, 6-(2-Morpholin-4-yl-ethoxy)-2-(8aH-pyrrolo[1,2-a]pyrazin-3-yl)-chromen-4-one oxime, hydrochloride]	> 250 °C (dec.)	–	< 1000 nM
Cl.ON=c1cc(-c2cn3cccc3cn2)oc2ccc(OCCN3CCC(F)(F)CC3)cc12 [Example 124, 6-[2-(4,4-Difluoro-piperidin-1-yl)-ethoxy]-2-pyrrolo[1,2-a]pyrazin-3-yl-chromen-4-one oxime, hydrochloride]	225 to 230 °C	–	< 1000 nM
Cl.ON=c1cc(-c2cn3cccc3cn2)oc2ccc(OCCn3ccnc3)cc12 [Example 125, 6-(2-Imidazol-1-yl-ethoxy)-2-pyrrolo[1,2-a]pyrazin-3-yl-chromen-4-one oxime, hydrochloride]	238 to 240 °C	–	< 1000 nM
ON=c1cc(-c2cn3cccc3cn2)oc2ccc(OCCc3ccc(F)cc3)cc12 [Example 126, 6-[2-(4-Fluoro-phenyl)-ethoxy]-2-pyrrolo[1,2-a]pyrazin-3-yl-chromen-4-one oxime]	248 to 250 °C	–	< 1000 nM
Cl.ON=c1cc(-c2cc3sccc3cn2)oc2ccc(OCCN3CCOCC3)cc12 [Example 127, 6-(2-Morpholin-4-yl-ethoxy)-2-thieno[3,2-c]pyridin-6-yl-chromen-4-one oxime, hydrochloride]	> 230 °C (dec.)	–	< 1000 nM
Cl.ON=c1cc(-c2cc3sccc3cn2)oc2ccc(OCCN3CCC(F)(F)CC3)cc12 [Example 128, 6-[2-(4,4-Difluoro-piperidin-1-yl)-ethoxy]-2-thieno[3,2-c]pyridin-6-yl-chromen-4-one oxime, hydrochloride]	225 to 230 °C	–	< 1000 nM
Cl.ON=c1cc(-c2cc3sccc3cn2)oc2ccc(OCCn3ccnc3)cc12 [Example 129, 6-(2-imidazol-1-yl-ethoxy)2-thieno[3,2-c]pyridin-6-yl-chromen-4-one oxime, hydrochloride]	218 to 220 °C	–	< 1000 nM
Cl.ON=c1cc(-c2cc3sccc3cn2)oc2ccc(OCCN3CCCC(F)(F)C3)cc12 [Example 131, 6-[2-(3,3-Difluoro-piperidin-1-yl)-ethoxy]-2-thieno[3,2-c]pyridin-6-yl-chromen-4-one oxime, hydrochloride]	> 250 °C (dec.)	–	< 1000 nM
CC1CN(CCOc2ccc3oc(-c4cc5sccc5cn4)cc(=NO)c3c2)CC(C)O1.Cl (centres unmarked) [Example 132, 6-[2-(2,6-Dimethyl-morpholin-4-yl)-ethoxy]-2-thieno[3,2-c]pyridin-6-yl-chromen-4-one oxime, hydrochloride]	222 to 225 °C	–	< 1000 nM
